The values below come from US10656089B2, “Systems, devices, and methods for time-resolved fluorescent spectroscopy” (Black Light Surgical, Inc., priority 2016, dated 2020).

For the assay, the system named is NADH levels in ex vivo brain sample (cortex). Kind of assay: continuous monitoring of NADH in an ex vivo brain sample by time-resolved fluorescence spectroscopy. The following applies: rabbit cortex ex vivo. As for the experimental part:
Changes in NADH level were assessed to determine changes in the metabolic status of the brain sample in response to oxygen depletion, stimulation with neuro-protective drugs, and other stimuli. During ATP production in aerobic respiration conditions, NADH is oxidized to NAD+. In low oxygen conditions, for example, in areas of hypoxia or ischemia after a stroke, NADH accumulates in cells and persistent oxygen depletion can lead to cell death and breakdown of NADH. The different NADH states and levels may allow for the assessment of the viability and vulnerability of cells in an ischemic environment. Fluctuations in NADH levels were evaluated by measuring the fluorescence emission from NADH […]. […]
The system comprised a Q-switched ND:YaG laser (Teem Photonics PNVM02510) 1804 running at 1 KHz which emitted laser pulse at a wavelength of about 350 nm and a pulse width of about 400 ps full width half maximum (FWHM). […] The probe 1800 comprised a central 600 um fiber 1805 to deliver the excitation light surrounded by twelve 200 um fibers to collect the responsive fluorescence signal. […] One bundle of collection fibers 1806a was coupled to a spectrometer (Ocean Optics, Maya) which monitored the fluorescence spectrum every 100 ms. […]

For `C=C(C)[C@H]1Cc2c(ccc3c2O[C@@H]2COc4cc(OC)c(OC)cc4[C@@H]2C3=O)O1` [rotenone], under “50 nM rotenone added to Kreb-Ringer bath after about 30 minutes baseline”, the “NADH levels (free and bound NADH fluorescence)” value is “increased NADH levels”. The NADH fluorescence detected entry (additional rotenone doses of 1 uM and 50 uM added at 10 minute intervals) is recorded as “further increases in fluorescence detected”.
